Our source for the IC50 values is patent US20200069648A1, “HALOALLYLAMINE PYRAZOLE DERIVATIVE INHIBITORS OF LYSYL OXIDASES AND USES THEREOF” (Pharmaxis Ltd., priority 2017, published 2020).

Assay [1] concerns the target T1, human recombinant SSAO/VAP-1 (Homo sapiens, UniProt Q16853).
T1 construct: a cloned cDNA template corresponding to residues 34-763 of human SSAO/VAP-1; TEV cleavage site (N); made in house
T1 sequence (Q16853 34-763): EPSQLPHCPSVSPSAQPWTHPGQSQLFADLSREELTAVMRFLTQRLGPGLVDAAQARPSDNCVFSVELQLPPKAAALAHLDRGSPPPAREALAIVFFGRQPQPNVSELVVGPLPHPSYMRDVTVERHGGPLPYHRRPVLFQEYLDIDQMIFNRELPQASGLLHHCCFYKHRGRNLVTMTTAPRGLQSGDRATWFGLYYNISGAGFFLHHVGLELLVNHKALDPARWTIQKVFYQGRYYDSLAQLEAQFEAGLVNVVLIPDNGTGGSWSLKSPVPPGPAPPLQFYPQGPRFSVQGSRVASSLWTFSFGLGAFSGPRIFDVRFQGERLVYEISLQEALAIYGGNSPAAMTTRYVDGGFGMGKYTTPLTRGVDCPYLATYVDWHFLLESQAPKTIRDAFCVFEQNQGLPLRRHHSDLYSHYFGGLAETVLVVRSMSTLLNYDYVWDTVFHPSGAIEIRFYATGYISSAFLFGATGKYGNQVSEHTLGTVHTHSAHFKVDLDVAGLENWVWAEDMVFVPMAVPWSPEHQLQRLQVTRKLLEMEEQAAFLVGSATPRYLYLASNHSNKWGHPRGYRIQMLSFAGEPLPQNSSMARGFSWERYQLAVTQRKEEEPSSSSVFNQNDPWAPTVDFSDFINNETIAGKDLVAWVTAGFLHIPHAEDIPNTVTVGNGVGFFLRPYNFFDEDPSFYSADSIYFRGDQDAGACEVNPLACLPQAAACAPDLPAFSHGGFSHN
As to the kind of experiment: Human recombinant SSAO/VAP-1 amine oxidase inhibition. The assay is classed as biochemical. The conditions noted are these: 30 min preincubation at 37° C., 600 μM benzylamine. The procedure:
Method to Determine the Ability of Compounds of Formula I to Inhibit Human Recombinant SSAO/VAP-1
Human recombinant SSAO/VAP-1 amine oxidase activity was determined using the coupled colorimetric method as described for monoamine oxidase, copper-containing amine oxidases and related enzymes (Holt A. and Palcic M., A peroxidase-coupled continuous absorbance plate-reader assay for flavin monoamine oxidases, copper-containing amine oxidases and related enzymes. Nat Protoc 2006; 1: 2498-2505). Briefly, a cloned cDNA template corresponding to residues 34-763 of human SSAO/VAP-1, and incorporating a mouse Ig kappa (κ) signal sequence, N-terminal flag epitope tag and tobacco etch virus (TEV) cleavage site, was assembled in a mammalian expression vector (pLO-CMV) by Geneart AG. This vector containing human SSAO/VAP-1 residues was transfected into CHO-K1 glycosylation mutant cell line, Lec 8. A clone stably expressing human SSAO/VAP-1 was isolated and cultured in large scale. Active human SSAO/VAP-I was purified and recovered using immunoaffinity chromatography. This was used as the source for SSAO/VAP-1 activity. A high-throughput colorimetric assay was developed using either 96 or 384 well format. Briefly, in a standard 96 well plate assay 50 μL of purified human SSAO/VAP-1 (0.25 μg/mL) in 0.1 M sodium phosphate buffer (pH 7.4) was added into each well. Test compounds were dissolved in DMSO and tested in a Concentration Response Curve (CRC) with 4-11 data points, typically in the micromolar or nanomolar range after incubation with human SSAO/VAP-1 for 30 min at 37° C. After 30 min incubation, 50 μL of the reaction mixture containing 600 μM benzylamine (Sigma Aldrich), 120 μM Amplex Red (Sigma Aldrich) and 1.5 U/mL horseradish peroxidase (Sigma Aldrich) prepared in 0.1 M sodium phosphate buffer (pH 7.4) were added to the corresponding well. The fluorescence unit (RFU) was read every 2.5 min for 30 min at 37° C. excitation 565 nm and emission 590 (Optima; BMG labtech). The slope of the kinetics for each well was calculated using MARS data analysis software (BMG labtech) and this value was used to deduce the IC50 value (Dotmatics).

For the next assay, the target named is T2, Bovine LOX (Bos taurus, UniProt P33072).
T2 sequence (P33072 170-418): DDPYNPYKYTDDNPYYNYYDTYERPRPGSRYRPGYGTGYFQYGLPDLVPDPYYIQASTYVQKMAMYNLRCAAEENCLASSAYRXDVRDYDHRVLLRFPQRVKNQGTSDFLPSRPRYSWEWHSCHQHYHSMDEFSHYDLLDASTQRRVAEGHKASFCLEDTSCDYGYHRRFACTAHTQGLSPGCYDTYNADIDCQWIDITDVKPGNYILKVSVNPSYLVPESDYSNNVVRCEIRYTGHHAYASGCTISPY
As to the kind of experiment: LOX amine oxidase inhibition, peroxidase-coupled Amplex Red assay. The class given is biochemical. As to conditions: 30 min preincubation at 37° C., putrescine substrate. Summed up:
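Bovine LOX in 1.2 M urea, 50 mM sodium borate pH 8.2 […]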

Each structure is given as a SMILES string. pIC50: −log10 of the molar value. Where a name gives a salt, the structure may show the parent alone.

As usually defined, the pIC50 is −log10 of the IC50, conventionally taken in molar units. In the case of `Cc1c(Cc2ccc(S(=O)(=O)N(C)C)cc2)c(C(=O)N(C)C)nn1C/C(F)=C/CN` [Compound 32, (Z)-1-(4-amino-2-fluorobut-2-enyl)-4-(4-(N,N-dimethylsulfamoyl)benzyl)-N,N,5-trimethyl-1H-pyrazole-3-carboxamide hydrochloride], the values for the pIC50 (in assay [1]; at Bovine LOX) were < 4.52 and > 5.00, respectively.
Taken in the same sequence, the figures for `Cc1nn(C/C(F)=C/CN)c(C)c1Cc1ccc(C(=O)N(C)C)cc1` [Compound 14, (Z)-4-((1-(4-amino-2-fluorobut-2-en-1-yl)-3,5-dimethyl-1H-pyrazol-4-yl)methyl)-N,N-dimethylbenzamide hydrochloride] were < 4.52 and > 5.00.
For `Cc1nn(C/C(F)=C/CN)c(C(=O)O)c1Cc1ccc(S(=O)(=O)N(C)C)cc1` [Compound 30, (Z)-1-(4-amino-2-fluorobut-2-enyl)-4-(4-(N,N-dimethylsulfamoyl)benzyl)-3-methyl-1H-pyrazole-5-carboxylic acid hydrochloride], the pIC50 in assay [1] was < 4.52; against Bovine LOX, < 5.00.
Taken in the same sequence, the figures for `Cc1nn(C/C(F)=C/CN)c(C)c1Cc1ccc(S(C)(=O)=O)c(Cl)c1` [Compound 16, (Z)-4-(4-(3-chloro-4-(methylsulfonyl)benzyl)-3,5-dimethyl-1H-pyrazol-1-yl)-3-fluorobut-2-en-1-amine hydrochloride] were < 5.00 and > 5.00.
Taken in the same sequence, the figures for `Cc1nn(C/C(F)=C/CN)c(C)c1Cc1ccc(S(C)(=O)=O)cc1Cl` [Compound 12, (Z)-4-(4-(2-chloro-4-(methylsulfonyl)benzyl)-3,5-dimethyl-1H-pyrazol-1-yl)-3-fluorobut-2-en-1-amine hydrochloride] were > 5.00 and > 5.00.
Consider `Cc1nn(C/C(F)=C/CN)c(C)c1Cc1ccc(S(=O)(=O)N(C)C)c(C(F)(F)F)c1` [Compound 18, (Z)-4-((1-(4-amino-2-fluorobut-2-en-1-yl)-3,5-dimethyl-1H-pyrazol-4-yl)methyl)-N,N-dimethyl-2-(trifluoromethyl)benzenesulfonamide hydrochloride], for which the pIC50 in assay [1] was < 4.52; on Bovine LOX, > 5.00.
Regarding `Cc1nn(C/C(F)=C/CN)c(C)c1Cc1ccc(S(=O)(=O)N(C)C)c(OC(F)(F)F)c1` [Compound 17, (Z)-4-((1-(4-amino-2-fluorobut-2-en-1-yl)-3,5-dimethyl-1H-pyrazol-4-yl)methyl)-N,N-dimethyl-2-(trifluoromethoxy)benzenesulfonamide hydrochloride], the negative logarithm of the IC50 (pIC50) (in assay [1]; on Bovine LOX) was < 5.00 each time.
In the case of `Cc1nn(C/C(F)=C/CN)c(C)c1Cc1cc(F)c(S(=O)(=O)N(C)C)cc1F` [Compound 19, (Z)-4-((1-(4-amino-2-fluorobut-2-en-1-yl)-3,5-dimethyl-1H-pyrazol-4-yl)methyl)-2,5-difluoro-N,N-dimethylbenzenesulfonamide hydrochloride], the pIC50 is < 4.52 in assay [1] and > 5.00 at Bovine LOX.
Regarding `Cc1nn(C/C(F)=C/CN)c(C)c1Cc1ccc(S(=O)(=O)N(C)C)c(Cl)c1` [Compound 15, (Z)-4-((1-(4-amino-2-fluorobut-2-en-1-yl)-3,5-dimethyl-1H-pyrazol-4-yl)methyl)-2-chloro-N,N-dimethylbenzenesulfonamide hydrochloride], the negative-log IC50 (pIC50) (in assay [1]; against Bovine LOX) was > 5.00 throughout.
Turning to `Cc1nn(C/C(F)=C/CN)c(C(=O)N(C)C)c1Cc1ccc(S(=O)(=O)N(C)C)cc1` [Compound 29, (Z)-1-(4-amino-2-fluorobut-2-enyl)-4-(4-(N,N-dimethylsulfamoyl)benzyl)-N,N,3-trimethyl-1H-pyrazole-5-carboxamide hydrochloride], the results for the pIC50 (in assay [1]; against Bovine LOX) were < 4.52 and > 5.00, respectively.
Regarding `CC(C)c1nn(C/C(F)=C/CN)c(C(C)O)c1Cc1ccc(S(=O)(=O)N(C)C)c(Cl)c1` (stereo not drawn) [Compound 59, (Z)-4-((1-(4-amino-2-fluorobut-2-en-1-yl)-5-(1-hydroxyethyl)-3-isopropyl-1H-pyrazol-4-yl)methyl)-2-chloro-N,N-dimethylbenzenesulfonamide hydrochloride], the results for the pIC50 (in assay [1]; at Bovine LOX) were < 4.52 and < 5.00, respectively.
For the compound `Cc1nn(C/C(F)=C/CN)c(C)c1Cc1cccc(S(=O)(=O)N(C)C)c1` [Compound 5, (Z)-3-((1-(4-amino-2-fluorobut-2-en-1-yl)-3,5-dimethyl-1H-pyrazol-4-yl)methyl)-N,N-dimethyl benzenesulfonamide hydrochloride], the pIC50 was < 4.52 in assay [1] and < 5.00 against Bovine LOX.
The corresponding values for `CCOC(=O)c1nn(C/C(F)=C/CN)c(C)c1Cc1ccc(S(=O)(=O)N(C)C)cc1` [Compound 28, (Z)-ethyl 1-(4-amino-2-fluorobut-2-enyl)-4-(4-(N,N-dimethylsulfamoyl)benzyl)-5-methyl-1H-pyrazole-3-carboxylate hydrochloride] are < 4.52 and > 5.00.
The corresponding values for `CNS(=O)(=O)c1cc(F)c(Cn2nc(C)c(C/C(F)=C/CN)c2C)cc1F` [Compound 26, (Z)-4-((4-(4-amino-2-fluorobut-2-en-1-yl)-3,5-dimethyl-1H-pyrazol-1-yl)methyl)-2,5-difluoro-N-methylbenzenesulfonamide hydrochloride] are > 5.00 and > 5.00.
Regarding `Cc1nn(C/C(F)=C/CN)c(C)c1Cc1ccc(S(=O)(=O)N(C)C(C)C)cc1` [Compound 8, (Z)-4-((1-(4-amino-2-fluorobut-2-en-1-yl)-3,5-dimethyl-1H-pyrazol-4-yl)methyl)-N-isopropyl-N-methylbenzenesulfonamide hydrochloride], the pIC50 in assay [1] was < 5.00; against Bovine LOX, > 5.00.
As for `Cc1nn(Cc2cc(F)c(S(=O)(=O)N(C)C)cc2F)c(C)c1C/C(F)=C/CN` [Compound 25, (Z)-4-((4-(4-amino-2-fluorobut-2-en-1-yl)-3,5-dimethyl-1H-pyrazol-1-yl)methyl)-2,5-difluoro-N,N-dimethylbenzenesulfonamide hydrochloride], the pIC50 in assay [1] was < 4.52; on Bovine LOX, > 5.00.
The corresponding values for `Cc1nn(C/C(F)=C/CN)c(C(C)O)c1Cc1ccc(S(=O)(=O)N(C)C)c(Cl)c1` (single isomer, unassigned) [Compound 52, (Z)-4-((1-(4-amino-2-fluorobut-2-en-1-yl)-5-(1-hydroxyethyl)-3-methyl-1H-pyrazol-4-yl)methyl)-2-chloro-N,N-dimethylbenzenesulfonamide hydrochloride] are < 4.52 and < 5.00.
The corresponding values for `Cc1nn(C/C(F)=C/CN)c(C(C)O)c1Cc1ccc(S(=O)(=O)N(C)C)c(Cl)c1` (single isomer, unassigned) [Compound 53, (Z)-4-((1-(4-amino-2-fluorobut-2-en-1-yl)-5-(1-hydroxyethyl)-3-methyl-1H-pyrazol-4-yl)methyl)-2-chloro-N,N-dimethylbenzenesulfonamide hydrochloride] are < 4.52 and < 5.00.
